In patent publication US7291612B2, “Immunomodulatory compounds” (Active Biotech A.B., priority 2002, dated 2007) one finds EC50 data, which are given here for 54 molecules.

The structures appear in SMILES notation. Like-named read-outs stand apart in the source and are kept apart here.

This assay concerns the target T1, CD80-CD28 interaction (Homo sapiens, UniProt P33681).
T1 construct: mouse Fab fragment (fusion partner)
T1 sequence (P33681 35-242 limits assumed): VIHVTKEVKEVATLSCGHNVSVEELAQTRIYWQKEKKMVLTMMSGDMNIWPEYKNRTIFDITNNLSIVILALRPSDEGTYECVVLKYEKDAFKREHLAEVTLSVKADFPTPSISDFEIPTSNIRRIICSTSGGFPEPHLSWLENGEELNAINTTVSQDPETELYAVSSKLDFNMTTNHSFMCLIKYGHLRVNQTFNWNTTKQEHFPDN
In words: cell free Homogenous Time Resolved Fluorescence (HTRF) assay, inhibition of the CD80-CD28 interaction. Format: binding. The method, then:
The examples described above were tested in a cell free Homogenous Time Resolved Fluorescence (HTRF) assay to determine their activity as inhibitors of the CD80-CD28 interaction.
In the assay, europium and allophycocyanin (APC) are associated with CD28 and CD80 indirectly (through antibody linkers) to form a complex, which brings the europium and APC into close proximity to generate a signal. The complex comprises the following six proteins: fluorescent label 1, linker antibody 1, CD28 fusion protein, CD80 fusion protein, linker antibody 2, and fluorescent label 2. The table below describes these reagents in greater detail.
On formation of the complex, europium and APC are brought into proximity and a signal is generated.
Non-specific interaction was measured by substituting a mouse Fab fragment (C215) for the CD80 mouse Fab fragment fusion protein (1.9 μg/ml). The assay was carried out in black 384 well plates in a final volume of 30 μl. Assay buffer: 50 mM Tris-HCl, 150 mM NaCl pH7.8, containing 0.1% BSA (w/v) added just prior to use.
Compounds were added to the above reagents in a concentration series ranging between 100 μM-1.7 nM. The reaction was incubated for 4 hours at room temperature. Dual measurements were made using a Wallac Victor 1420 Multilabel Counter. First measurement: excitation 340 nm, emission 665 nm, delay 50 μs, window time 200 μs. second measurement: excitation 340 nm, emission 615 nm, delay 50 μs, window time 200 μs. Counts were automatically corrected for fluorescence crossover, quenching and background.

Where [1] appears, read: 4 hours at room temperature, read-out: Activity (EC50 in summary form).

For orientation: EC50 means the midpoint of the concentration-response curve. In the case of `CC(C)C(=O)Nc1ccc(-n2nc3c4ccccc4[nH]cc-3c2=O)cc1` [Example 45], the half-maximal effective concentration (EC50) under setting [1] lay within 1000 to 10000 nM. Regarding `CCCC(C)C(=O)Nc1ccc(-n2nc3c4cccc(F)c4[nH]cc-3c2=O)cc1` (stereo not shown) [Example 2, 2-Methyl-pentanoic acid [4-(6-fluoro-3-oxo-3,5-dihydro-pyrazolo[4,3-c]quinolin-2-yl)-phenyl]-amide], the 50% effective concentration (EC50) under setting [1] is less than 1000 nM.

With `C#CCNC(=O)c1cccc(-n2nc3c4cccc(F)c4[nH]cc-3c2=O)c1` [Example 62], under setting [1], the EC50 is 1000 to 10000 nM. On the same count and under the same terms, to `O=C(NCCc1cccnc1)c1ccc(-n2nc3c4cccc(F)c4[nH]cc-3c2=O)cc1` [Example 119] belongs 1000 to 10000 nM; to `O=C(c1ccc(-n2nc3c4cccc(F)c4[nH]cc-3c2=O)cc1)N1CCN(Cc2ccc(Cl)cc2)CC1` [Example 105], greater than 10000 nM. The same measure, in the same setting: then `O=C(NCCCN1CCCC1)c1ccc(-n2nc3c4ccccc4[nH]cc-3c2=O)cc1` [Example 91], with 1000 to 10000 nM; and `O=C(NCc1ccccc1)c1cccc(-n2nc3c4cccc(F)c4[nH]cc-3c2=O)c1` [Example 52, N-Benzyl-3-(6-fluoro-3-oxo-3,5-dihydro-pyrazolo[4,3-c]-quinolin-2-yl)-benzamide], with greater than 10000 nM. The same measure, in the same setting: then `CCN(CC)C(=O)c1ccc(-n2nc3c4cccc(F)c4[nH]cc-3c2=O)cc1` [Example 78], with 1000 to 10000 nM; and `COCCCNC(=O)c1ccc(-n2nc3c4cccc(F)c4[nH]cc-3c2=O)cc1` [Example 73], with less than 1000 nM. Turning to `CN(C)CCCNC(=O)c1ccc(-n2nc3c4ccccc4scc-3c2=O)cc1` [Example 165, N-[3-(dimethylamino)propyl]-4-(3-oxothiochromeno[4,3-c]pyrazol-2(3H)-yl)benzamide], the EC50 under setting [1] is 1000 to 10000 nM. On the same count and under the same terms, to `CCNC(=O)c1cccc(-n2nc3c4cccc(F)c4[nH]cc-3c2=O)c1` [Example 51, N-Ethyl-3-(6-fluoro-3-oxo-3,5-dihydro-pyrazolo[4,3-c]-quinolin-2-yl)-benzamide] belongs 1000 to 10000 nM. Consider `O=C(CNCCCN1CCCC1=O)Nc1ccc(-n2nc3c4cccc(F)c4[nH]cc-3c2=O)cc1` [Example 35], for which the EC50 is, setting by setting: under setting [1], less than 1000 nM; (read-out: EC50) 148 nM. Regarding `CCOC(=O)Nc1ccc(-n2nc3c4cccc(F)c4[nH]cc-3c2=O)cc1` [Example 151], the EC50 under setting [1] lay in the range of 1000 to 10000 nM. Same read-out and setting: then `CC(=O)Nc1ccc(-n2nc3c4cccc(F)c4[nH]cc-3c2=O)cc1` [Example 16], with 1000 to 10000 nM; and `O=C(NC1CCCCNC1=O)c1ccc(-n2nc3c4cccc(F)c4[nH]cc-3c2=O)cc1` (stereo not shown) [Example 123], with 1000 to 10000 nM; and `CN1C2CCC1CC(NC(=O)c1ccc(-n3nc4c5cccc(F)c5[nH]c(C5CC5)c-4c3=O)cc1)C2` (stereo not shown) [Example 134], with less than 1000 nM. The same measure, in the same setting: then `CN(C)CCCOC(=O)Nc1ccc(-n2nc3c4cccc(F)c4[nH]cc-3c2=O)cc1` [Example 154], with less than 1000 nM; and `O=C(Nc1ccc(-n2nc3c4cccc(F)c4[nH]cc-3c2=O)cc1)c1ccno1` [Example 28], with 1000 to 10000 nM. Consider `CN1CCN(CCCNC(=O)c2ccc(-n3nc4c5cccc(F)c5[nH]cc-4c3=O)cc2Cl)CC1` [Example 100], for which, under setting [1], the EC50 was 1000 to 10000 nM. The same measure, in the same setting: to `CN(Cc1ccccc1)C(=O)c1cccc(-n2nc3c4cccc(F)c4[nH]cc-3c2=O)c1` [Example 63] belongs 1000 to 10000 nM; to `CN(C)CCCN(C)C(=O)c1cccc(-n2nc3c4cccc(F)c4[nH]cc-3c2=O)c1` [Example 53], greater than 10000 nM. The same measure, in the same setting: to `O=C(NCCCCN1CCCC1)c1ccc(-n2nc3c4cccc(F)c4[nH]cc-3c2=O)cc1` [Example 82] belongs less than 1000 nM; to `CN(C)CCCCNC(=O)c1ccc(-n2nc3c4cccc(F)c4[nH]cc-3c2=O)cc1Cl` [Example 110], 1000 to 10000 nM. The same measure, in the same setting: to `O=C(CCl)Nc1ccc(-n2nc3c4cccc(F)c4[nH]cc-3c2=O)cc1` [Example 9] belongs 1000 to 10000 nM; to `CCOC(=O)C1CCN(C(=O)c2cccc(-n3nc4c5cccc(F)c5[nH]cc-4c3=O)c2)CC1` [Example 64], greater than 10000 nM. Consider `CN(C)CCCN(C)C(=O)c1ccc(-n2nc3c4ccccc4[nH]cc-3c2=O)cc1` [Example 89], for which the EC50 under setting [1] was 1000 to 10000 nM. Still for that read-out and setting: to `COC(=O)CC[C@H](N)C(=O)Nc1ccc(-n2nc3c4cccc(F)c4[nH]cc-3c2=O)cc1` [Example 38] belongs 1000 to 10000 nM; to `COC(=O)[C@@H](NC(=O)Nc1ccc(-n2nc3c4ccccc4[nH]cc-3c2=O)cc1)C(C)C` [Example 162], less than 1000 nM; to `O=c1c2c[nH]c3c(F)cccc3c-2nn1-c1ccc(NC(=S)NC2CC2)cc1` [Example 148], 1000 to 10000 nM. The same measure, in the same setting: then `CN(C)CCCCNC(=O)Nc1ccc(-n2nc3c4cccc(F)c4[nH]cc-3c2=O)cc1` [Example 163], with less than 1000 nM; and `CC(C)(C)OC(=O)Nc1ccc(-n2nc3c4cccc(F)c4[nH]cc-3c2=O)cc1` [Example 150], with less than 1000 nM.

For the molecule `CCCCCNC(=S)Nc1ccc(-n2nc3c4cccc(F)c4[nH]cc-3c2=O)cc1` [Example 156], the EC50 under setting [1] is 1000 to 10000 nM. As for `O=C(CN1CCCCC1)Nc1ccc(-n2nc3c4cccc(F)c4[nH]cc-3c2=O)cc1` [Example 42], the EC50 under setting [1] was in the range of 1000 to 10000 nM. On the same count and under the same terms, to `O=c1c2c[nH]c3c(F)cccc3c-2nn1-c1ccc(NC(=S)NC2CCCCC2)cc1` [Example 149] belongs greater than 10000 nM; to `COC(=O)CCCCC(=O)Nc1ccc(-n2nc3c4cccc(F)c4[nH]cc-3c2=O)cc1` [Example 6, 5-[4-(6-Fluoro-3-oxo-3,5-dihydro-pyrazolo[4,3-c]quinolin-2-yl)phenylcarbamoyl]-pentanoic acid methyl ester], less than 1000 nM. Same read-out and setting: to `CC(C)(C)NC(=O)Nc1ccc(-n2nc3c4cccc(F)c4[nH]cc-3c2=O)cc1` [Example 146] belongs less than 1000 nM; to `COCC(=O)Nc1ccc(-n2nc3c4cccc(F)c4[nH]cc-3c2=O)cc1` [Example 27], 1000 to 10000 nM; to `CN(C)CCCCNC(=O)c1cccc(-n2nc3c4cccc(F)c4[nH]cc-3c2=O)c1` [Example 58], 1000 to 10000 nM. Same read-out and setting: to `CC(C)N(CCNCC(=O)Nc1ccc(-n2nc3c4cccc(F)c4[nH]cc-3c2=O)cc1)C(C)C` [Example 41] belongs 1000 to 10000 nM; to `COC(=O)CNC(=O)c1ccc(-n2nc3c4cccc(F)c4[nH]cc-3c2=O)cc1` [Example 72], less than 1000 nM; to `CN(C)CCCCNC(=O)c1ccc(-n2nc3c4cccc(F)c4[nH]cc-3c2=O)cc1` [Example 81], less than 1000 nM. Regarding `O=c1c2c[nH]c3ccccc3c-2nn1-c1ccc(NC(=S)NC2CC2)cc1` [Example 160], the EC50 under setting [1] was 1000 to 10000 nM. Same read-out and setting: to `O=C(NCCc1ccccn1)c1ccc(-n2nc3c4cccc(F)c4[nH]c(C4CC4)c-3c2=O)cc1` [Example 138] belongs 1000 to 10000 nM; to `CN(C)CCCC(=O)Nc1ccc(-n2nc3c4cccc(F)c4[nH]cc-3c2=O)cc1` [Example 30], less than 1000 nM.

Regarding `O=C(CN1CCN(Cc2ccc(F)cc2)CC1)Nc1ccc(-n2nc3c4cccc(F)c4[nH]cc-3c2=O)cc1` [Example 48], the concentration for a half-maximal effect (EC50) under setting [1] was in the range of 1000 to 10000 nM. Take `O=C(CNCCc1ccccn1)Nc1ccc(-n2nc3c4cccc(F)c4[nH]cc-3c2=O)cc1` [Example 36]: the EC50 under setting [1] lay in the range of 1000 to 10000 nM. The same measure, in the same setting: to `COC(=O)CNC(=O)c1cccc(-n2nc3c4cccc(F)c4[nH]cc-3c2=O)c1` [Example 61] belongs greater than 10000 nM; to `CN(C)CCCNC(=O)Nc1ccc(-n2nc3c4cccc(F)c4[nH]cc-3c2=O)cc1` [Example 161], less than 1000 nM. Same read-out and setting: then `O=C(NCCCN1CCCC1)c1cccc(-n2nc3c4cccc(F)c4[nH]cc-3c2=O)c1` [Example 56], with greater than 10000 nM; and `CN1CCN(CCCNC(=O)c2ccc(-n3nc4c5cccc(F)c5[nH]cc-4c3=O)cc2)CC1` [Example 98], with less than 1000 nM; and `O=C(NCCCN1CCN(Cc2c(F)cccc2Cl)CC1)c1ccc(-n2nc3c4cccc(F)c4[nH]c(C4CC4)c-3c2=O)cc1` [Example 137], with less than 1000 nM.

Turning to `CN(C)CC(C)(C)CNC(=O)c1ccc(-n2nc3c4cccc(F)c4[nH]c(C4CC4)c-3c2=O)cc1` [Example 140], the EC50 under setting [1] is less than 1000 nM. In the case of `CN1CCCC1CCNCC(=O)Nc1ccc(-n2nc3c4cccc(F)c4[nH]cc-3c2=O)cc1` (stereo not shown) [Example 39], under setting [1], the EC50 is less than 1000 nM. On the same count and under the same terms, to `O=C(NCCN1CCN(Cc2ccccc2)CC1)c1ccc(-n2nc3c4cccc(F)c4[nH]cc-3c2=O)cc1` [Example 84] belongs less than 1000 nM.
